Results taken from the supplement of paper PMC10307832.

How the values were obtained:
Assay in all cases: relative viability (nuclei count vs DMSO), 5 days (fraction); higher = more cells survive
Daporinad + OSI-027 = compound: O=C(/C=C/c1cccnc1)NCCCCC1CCN(C(=O)c2ccccc2)CC1 [Daporinad] + COc1cccc2cc(-c3nc([C@H]4CC[C@H](C(=O)O)CC4)n4ncnc(N)c34)[nH]c12 [OSI-027] (partner 0.5 µM)
Summary of the method: (§1)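 Relative viability equals treated-well nuclei counts divided by vehicle-well nuclei counts. Counts came from 4× images of lung cancer cell lines grown in 1536-well plates for 5 days after pin-tool dosing on the day after seeding. Dosing used one drug alone or a fixed anchor-drug dose plus five library-drug doses (not always all listed) in √10 steps, and values are medians of duplicate plates.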

R406 + Lapatinib = compound: COc1cc(Nc2ncc(F)c(Nc3ccc4c(n3)NC(=O)C(C)(C)O4)n2)cc(OC)c1OC [R406] + CS(=O)(=O)CCNCc1ccc(-c2ccc3ncnc(Nc4ccc(OCc5cccc(F)c5)c(Cl)c4)c3c2)o1 [Lapatinib] (partner 2 µM)
Summary of the method: as §1

R406 + Foretinib = compound: COc1cc(Nc2ncc(F)c(Nc3ccc4c(n3)NC(=O)C(C)(C)O4)n2)cc(OC)c1OC [R406] + COc1cc2c(Oc3ccc(NC(=O)C4(C(=O)Nc5ccc(F)cc5)CC4)cc3F)ccnc2cc1OCCCN1CCOCC1 [Foretinib] (partner 0.25 µM)
Summary of the method: as §1

Daporinad + AZD7762 = compound: O=C(/C=C/c1cccnc1)NCCCCC1CCN(C(=O)c2ccccc2)CC1 [Daporinad] + NC(=O)Nc1cc(-c2cccc(F)c2)sc1C(=O)N[C@H]1CCCNC1 [AZD7762] (partner 0.2 µM)
Summary of the method: as §1

Row | Cell Line | relative viability (Daporinad + OSI-027; first compound 0.0005 µM) | relative viability (Daporinad + OSI-027; first compound 0.001581 µM) | relative viability (Daporinad + OSI-027; first compound 0.005 µM) | relative viability (Daporinad + OSI-027; first compound 0.01581 µM) | relative viability (R406 + Lapatinib; first compound 0.08 µM) | relative viability (R406 + Lapatinib; first compound 0.253 µM) | relative viability (R406 + Lapatinib; first compound 0.8 µM) | relative viability (R406 + Lapatinib; first compound 2.53 µM) | relative viability (R406 + Lapatinib; first compound 8 µM) | relative viability (R406 + Foretinib; first compound 0.08 µM) | relative viability (R406 + Foretinib; first compound 0.253 µM) | relative viability (R406 + Foretinib; first compound 0.8 µM) | relative viability (R406 + Foretinib; first compound 2.53 µM) | relative viability (R406 + Foretinib; first compound 8 µM) | relative viability (Daporinad + AZD7762; first compound 0.0005 µM) | relative viability (Daporinad + AZD7762; first compound 0.001581 µM) | relative viability (Daporinad + AZD7762; first compound 0.005 µM) | relative viability (Daporinad + AZD7762; first compound 0.01581 µM)
1 | LK-2 | 0.225 | 0.241 | 0.18 | 0.192 | 0.856 | 1.03 | 0.843 | 0.472 | 0.321 | 1.14 | 1.45 | 1.1 | 0.888 | 0.344 | 0.523 | 0.36 | 0.199 | 0.141
2 | LOU-NH91 | 0.732 | 0.779 | 0.772 | 0.83 | 0.785 | 0.792 | 0.734 | 0.564 | 0.537 | 0.918 | 0.975 | 0.918 | 0.518 | 0.475 | 0.761 | 0.803 | 0.905 | 0.816
3 | LU99A | 0.33 | 0.282 | 0.358 | 0.305 | 0.946 | 0.849 | 1.08 | – | 0.482 | 0.801 | 0.794 | 0.914 | 0.588 | 0.345 | 0.31 | 0.281 | 0.377 | 0.307
4 | LXF-289 | 0.731 | 0.855 | 0.89 | 0.89 | 0.868 | 1.01 | 0.9 | 0.921 | 0.605 | 1.01 | 1.03 | 0.969 | 0.999 | 0.238 | 1.01 | 1.14 | 1.19 | 1.19
5 | NCI-H23 | 0.544 | 0.472 | 0.637 | 0.545 | 1.12 | 1.54 | 1.28 | 0.589 | 0.593 | 0.989 | 1.05 | 0.977 | – | 0.206 | 0.273 | 0.181 | 0.274 | 0.203
6 | NCI-H322M | 0.526 | 0.617 | 0.613 | 0.52 | 0.543 | 0.51 | 0.647 | 0.335 | 0.343 | 0.962 | 0.917 | 1.03 | 0.547 | 0.559 | 0.579 | 0.592 | 0.54 | 0.456
7 | NCI-H358 | 0.664 | 0.794 | 0.886 | 0.77 | 0.407 | 0.441 | 0.47 | 0.375 | 0.2 | 0.75 | 0.795 | 0.886 | 0.335 | 0.156 | 0.473 | 0.584 | 0.506 | 0.67
8 | NCI-H441 | 0.552 | 0.856 | 0.805 | 0.671 | – | – | – | – | – | 0.863 | 1.13 | 1.18 | 0.718 | 0.406 | 1.34 | 1.34 | 1.52 | 1.25
9 | NCI-H460 | 0.754 | 0.762 | 0.73 | 0.697 | 1.07 | 1.51 | – | – | 0.308 | 0.887 | 1.13 | 1.16 | 1.07 | 0.781 | 0.646 | 0.587 | 0.64 | 0.629
10 | NCI-H596 | 0.553 | 0.674 | 0.758 | 0.656 | 1.04 | 1.2 | 0.972 | 0.867 | 0.421 | 0.926 | 1 | 0.957 | 0.726 | 0.162 | 0.867 | 1.09 | 1.27 | 1.03
11 | NCI-H647 | 0.583 | 0.598 | 0.647 | 0.735 | 0.84 | 1.17 | 1.78 | 0.0824 | 0.157 | 1.24 | 1.2 | 1.15 | 0.917 | 1.05 | 0.428 | 0.749 | 0.573 | 0.514
12 | NCI-H650 | 0.477 | 0.415 | 0.525 | 0.626 | 0.877 | 1.04 | 1.02 | 0.243 | 0.52 | 0.968 | 1.17 | 1.03 | 0.914 | 0.864 | 0.931 | 0.775 | 1.32 | 1.06
13 | NCI-H727 | 0.603 | 0.606 | 0.622 | 0.519 | 0.918 | 0.85 | 0.905 | 0.195 | 0.712 | 0.954 | 0.841 | 0.851 | 0.752 | 0.697 | 0.757 | 0.466 | 0.513 | 0.439
14 | NCI-H838 | 0.415 | 0.465 | 0.475 | 0.555 | 0.886 | 1.11 | 1.36 | 0.114 | 0.182 | 0.984 | 1.17 | 1.09 | 0.645 | 0.791 | 1.02 | 1.02 | 0.894 | 0.837
15 | NCI-H1355 | 0.375 | 0.433 | 0.471 | 0.548 | 0.887 | 0.974 | 1.08 | 0.901 | 0.764 | 0.973 | 1.09 | 1.15 | 0.833 | 0.691 | 0.768 | 0.799 | 0.869 | 0.675
16 | NCI-H1395 | 0.644 | 0.64 | 0.71 | 0.739 | 0.821 | 1.1 | 0.986 | 0.851 | 0.491 | 1.03 | 1.22 | 1.03 | 0.736 | 0.632 | 0.386 | 0.391 | 0.441 | 0.384
17 | NCI-H1792 | 0.668 | 0.655 | 0.541 | 0.893 | 0.844 | 1.1 | 1.06 | 0.776 | 0.765 | – | – | – | – | – | 0.55 | 0.702 | 0.756 | 0.955
18 | NCI-H2342 | 0.674 | 0.552 | 0.602 | 0.613 | – | – | – | – | – | 0.889 | 1.21 | 1.22 | 0.863 | 0.88 | 0.508 | 0.457 | 0.612 | 0.532
19 | SW 900 | 0.42 | 0.475 | 0.745 | 0.463 | – | – | – | – | – | 0.769 | 0.779 | 0.915 | 0.754 | 0.519 | 0.647 | – | 0.72 | 0.654
